# Assay results: patent US11730712B2, “Functionalized long-chain hydrocarbon mono- and di-carboxylic acids and derivatives thereof, and their use for the prevention or treatment of disease” (ESPERVITA THERAPEUTICS, INC., priority 2021, dated 2023)
# System: liver fibrosis gene panel (770 genes)
# Assay: Nanostring nCounter Fibrosis panel gene expression in liver of DEN-injected mice
# Format: in vivo, mouse
# Settings: vs vehicle
# Method: Nanostring Analysis. RNA was extracted from paired liver and tumor tissue from vehicle, Compound I-1 (100 mg/kg) and Compound I-32 (100 mg/kg) treated mice using an RNeasy kit (Qiagen, Calif., USA) as per manufacturer's protocol. All RNA samples passed the BioAnalyzer quality control test. The expression of target genes in liver and tumor were analyzed using the nCounter Fibrosis and Cancer Panel (NanoString Technologies, Inc., WA, USA), respectively according to manufacturer's protocol at the McMaster Genomics Facility. Technical and biological normalization against global geometric mean was performed in nSolver 4.0 software (NanoString Technologies). Technical normalization was performed in the nSolver software (version 4.0.70) by normalizing sample target raw counts to the geometric mean of positive control spike-ins. Biological normalization was performed by normalizing sample target raw counts to the geometric mean of selected housekeeping genes (Ppia, Nubp1, Nol7, Armh3, Rplp0, Cnot10, Pgk1, and Acad9). Pathway scores were calculated as the first principal component of the normalized expression values for all genes in each pathway and samples were compiled according to experimental groups to determine average pathway scores. Statistical significance was calculated between experimental groups using multiple t-tests and p-values were corrected for multiple comparisons using Benjamin-Hochberg false discovery rate.
# Molecular analysis. To identify the pathways modulated in the liver and tumor tissue, nanostring analysis of fibrosis and cancer, pathways, respectively were completed in an n=8 mice treated with vehicle or Compound I-32 or Compound I-1 at 100 mg/kg.
structure (smiles),measurement,setting,value
"CC(C)(CCCCc1ccc(CCCCC(C)(C)C(=O)O)cc1)C(=O)O [Compound I-1, 6-[4-(5-carboxy-5-methylhexyl)-phenyl]-2,2-dimethylhexanoic acid]",Tin1 Log2FC,"NM_011602, 100 mg/kg",−0.237
same,Txn1 Log2FC,"NM_011660, 100 mg/kg",0.281
same,Vegfb Log2FC,"NM_011697, 100 mg/kg",0.603
same,Vim Log2FC,"NM_011701, 100 mg/kg",−0.309
same,Adh4 Log2FC,"NM_011996, 100 mg/kg",−0.808
same,Apoa2 Log2FC,"NM_013474, 100 mg/kg",0.172
same,Apoh Log2FC,"NM_013475, 100 mg/kg",−0.225
same,C9 Log2FC,"NM_013485, 100 mg/kg",−1.55
same,Cpt1a Log2FC,"NM_013495, 100 mg/kg",−0.302
same,Creb3 Log2FC,"NM_013497, 100 mg/kg",−0.38
same,P3h3 Log2FC,"NM_013534, 100 mg/kg",−0.96
same,Ptpn6 Log2FC,"NM_013545, 100 mg/kg",0.326
same,Slc25a10 Log2FC,"NM_013770, 100 mg/kg",0.508
same,H2-M3 Log2FC,"NM_013819, 100 mg/kg",−0.69
same,Xbp1 Log2FC,"NM_013842, 100 mg/kg",−0.397
same,Col5a1 Log2FC,"NM_015734, 100 mg/kg",−0.513
same,Isg15 Log2FC,"NM_015783, 100 mg/kg",−0.727
same,C6 Log2FC,"NM_016704, 100 mg/kg",−0.969
same,Smad3 Log2FC,"NM_016769, 100 mg/kg",−0.317
same,Irf3 Log2FC,"NM_016849, 100 mg/kg",−0.154
same,Ywhag Log2FC,"NM_018871, 100 mg/kg",0.305
same,Fbp1 Log2FC,"NM_019395, 100 mg/kg",−0.878
same,Ndufa1 Log2FC,"NM_019443, 100 mg/kg",0.226
same,Cpb2 Log2FC,"NM_019775, 100 mg/kg",−0.58
same,Uba52 Log2FC,"NM_019883, 100 mg/kg",0.484
same,Ube2d2a Log2FC,"NM_019912, 100 mg/kg",−0.237
same,Aldh9a1 Log2FC,"NM_019993, 100 mg/kg",0.545
same,Angpti4 Log2FC,"NM_020581, 100 mg/kg",0.707
same,Isg20 Log2FC,"NM_020583, 100 mg/kg",−0.48
same,Abcb11 Log2FC,"NM_021022, 100 mg/kg",−0.442
same,Tlr4 Log2FC,"NM_021297, 100 mg/kg",−0.608
same,Mlxipl Log2FC,"NM_021455, 100 mg/kg",0.439
same,Cxcl12 Log2FC,"NM_021704, 100 mg/kg",−0.597
same,Apoc3 Log2FC,"NM_023114, 100 mg/kg",−0.657
same,Kng1 Log2FC,"NM_023125, 100 mg/kg",−0.396
same,Cxcl16 Log2FC,"NM_023158, 100 mg/kg",−0.374
same,Em1 Log2FC,"NM_023913, 100 mg/kg",−0.533
same,Sec61b Log2FC,"NM_024171, 100 mg/kg",−0.355
same,Cyp27a1 Log2FC,"NM_024264, 100 mg/kg",−0.594
same,Fabp4 Log2FC,"NM_024406, 100 mg/kg",1.01
same,Spop Log2FC,"NM_025287, 100 mg/kg",0.186
same,Ndufb5 Log2FC,"NM_025316, 100 mg/kg",0.415
same,Ssr2 Log2FC,"NM_025448, 100 mg/kg",−0.177
same,Psenen Log2FC,"NM_025498, 100 mg/kg",−0.126
same,Ndufc1 Log2FC,"NM_025523, 100 mg/kg",0.438
same,Cox6b1 Log2FC,"NM_025628, 100 mg/kg",0.532
same,Uqcrh Log2FC,"NM_025641, 100 mg/kg",0.311
same,Uqcrfs1 Log2FC,"NM_025710, 100 mg/kg",0.255
same,Map1lc3a Log2FC,"NM_025735, 100 mg/kg",0.807
same,Ndufb8 Log2FC,"NM_026061, 100 mg/kg",0.327
same,Erp29 Log2FC,"NM_026129, 100 mg/kg",−0.217
same,Uqcrb Log2FC,"NM_026219, 100 mg/kg",0.476
same,Hikeshi Log2FC,"NM_026304, 100 mg/kg",0.233
same,Sugt1 Log2FC,"NM_026474, 100 mg/kg",0.185
same,Atg101 Log2FC,"NM_026566, 100 mg/kg",−0.436
same,Ndufs3 Log2FC,"NM_026688, 100 mg/kg",0.26
same,Anapc10 Log2FC,"NM_026904, 100 mg/kg",−0.291
same,Ifi35 Log2FC,"NM_027320, 100 mg/kg",−0.465
same,Pgm2 Log2FC,"NM_028132, 100 mg/kg",0.361
same,Phykpl Log2FC,"NM_028398, 100 mg/kg",−0.165
same,Pik3cb Log2FC,"NM_029094, 100 mg/kg",−0.421
same,Tlr1 Log2FC,"NM_030682, 100 mg/kg",−1.09
same,Hcar2 Log2FC,"NM_030701, 100 mg/kg",1.71
same,Cpn1 Log2FC,"NM_030703, 100 mg/kg",0.371
same,Slc2a2 Log2FC,"NM_031197, 100 mg/kg",−0.543
same,Lamtor2 Log2FC,"NM_031248, 100 mg/kg",0.195
same,Loxl2 Log2FC,"NM_033325, 100 mg/kg",−0.689
same,Derl2 Log2FC,"NM_033562, 100 mg/kg",−0.334
same,Ube2n Log2FC,"NM_080560, 100 mg/kg",−0.15
same,Elovl6 Log2FC,"NM_130450, 100 mg/kg",0.819
same,Acaca Log2FC,"NM_133360, 100 mg/kg",0.655
same,Fgg Log2FC,"NM_133862, 100 mg/kg",−0.517
same,Acacb Log2FC,"NM_133904, 100 mg/kg",0.612
same,Il1rap Log2FC,"NM_134103, 100 mg/kg",−0.815
same,Ptpa Log2FC,"NM_138748, 100 mg/kg",0.372
same,Mylk Log2FC,"NM_139300, 100 mg/kg",−0.458
same,Fcgr4 Log2FC,"NM_144559, 100 mg/kg",−0.541
same,Aldob Log2FC,"NM_144903, 100 mg/kg",−0.665
same,C1s1 Log2FC,"NM_144938, 100 mg/kg",−0.902
same,Txndc5 Log2FC,"NM_145367, 100 mg/kg",−0.284
same,Jak1 Log2FC,"NM_146145, 100 mg/kg",−0.203
same,C8a Log2FC,"NM_146148, 100 mg/kg",−1.21
same,Pkhd1 Log2FC,"NM_153179, 100 mg/kg",−0.99
same,Nckap1l Log2FC,"NM_153505, 100 mg/kg",−0.473
same,Mbtps2 Log2FC,"NM_172307, 100 mg/kg",0.309
same,Cyp4a12a Log2FC,"NM_177406, 100 mg/kg",1.65
same,Acaa2 Log2FC,"NM_177470, 100 mg/kg",0.464
same,Ep300 Log2FC,"NM_177821, 100 mg/kg",−0.258
same,Jmjd4 Log2FC,"NM_178659, 100 mg/kg",−0.385
same,Nceh1 Log2FC,"NM_178772, 100 mg/kg",0.592
same,Hadha Log2FC,"NM_178878, 100 mg/kg",1.12
same,Mfap3 Log2FC,"NM_180599, 100 mg/kg",−0.377
same,Fgb Log2FC,"NM_181849, 100 mg/kg",−0.336
same,Bst2 Log2FC,"NM_198095, 100 mg/kg",0.596
same,H2-Ab1 Log2FC,"NM_207105, 100 mg/kg",−0.716
same,Acsl4 Log2FC,"NM_207625, 100 mg/kg",0.645
same,Cflar Log2FC,"NM_207653, 100 mg/kg",−0.214
same,Egfr Log2FC,"NM_207655, 100 mg/kg",−1.12
same,Mapk9 Log2FC,"NM_207692, 100 mg/kg",0.185
same,Stat3 Log2FC,"NM_213659, 100 mg/kg",−0.646
same,H2-K1 Log2FC,"NM_001001892, 100 mg/kg",−0.284
same,Kdm2a Log2FC,"NM_001001984, 100 mg/kg",−0.312
same,Depdc5 Log2FC,"NM_001025426, 100 mg/kg",−0.27
same,Cfhr2 Log2FC,"NM_001025575, 100 mg/kg",−0.626
same,Ndufs5 Log2FC,"NM_001030274, 100 mg/kg",0.414
same,Itga1 Log2FC,"NM_001033228, 100 mg/kg",−0.394
same,Ndufb6 Log2FC,"NM_001033305, 100 mg/kg",0.243
same,Xaf1 Log2FC,"NM_001037713, 100 mg/kg",−0.742
same,Banf1 Log2FC,"NM_001038231, 100 mg/kg",0.319
same,Smurf1 Log2FC,"NM_001038627, 100 mg/kg",−0.697
same,Nrp2 Log2FC,"NM_001077403, 100 mg/kg",0.665
same,Ptafr Log2FC,"NM_001081211, 100 mg/kg",−0.518
same,Brpf3 Log2FC,"NM_001081315, 100 mg/kg",0.434
same,Rapgef2 Log2FC,"NM_001099624, 100 mg/kg",−0.262
same,Kng2 Log2FC,"NM_001102410, 100 mg/kg",−0.305
same,Aqp8 Log2FC,"NM_001109045, 100 mg/kg",−0.993
same,Igf1 Log2FC,"NM_001111274, 100 mg/kg",−0.496
same,Lrrc32 Log2FC,"NM_001113379, 100 mg/kg",−0.438
same,Stat5b Log2FC,"NM_001113563, 100 mg/kg",−0.322
same,Il1r1 Log2FC,"NM_001123382, 100 mg/kg",−0.998
same,Aldh7a1 Log2FC,"NM_001127338, 100 mg/kg",−0.252
same,Chuk Log2FC,"NM_001162410, 100 mg/kg",0.202
same,Mmm1 Log2FC,"NM_001163507, 100 mg/kg",−0.231
same,Cyfip1 Log2FC,"NM_001164661, 100 mg/kg",−0.264
same,Akt1 Log2FC,"NM_001165894, 100 mg/kg",−0.226
same,Cd84 Log2FC,"NM_001252472, 100 mg/kg",−0.439
same,Apoc2 Log2FC,"NM_001277944, 100 mg/kg",−1.26
same,Cd68 Log2FC,"NM_001291058, 100 mg/kg",−0.613
same,Col6a3 Log2FC,"XM_897036, 100 mg/kg",−1.06
